Where a name gives a salt, the structure may show the parent alone.
Experiments:
[1] = as reported in Japanese Patent Public Disclosure No. 25323/84; cited from earlier work
rats = experiment: Acute toxicity via oral route in rats; format: in vivo
[2] = test system: superoxide anion (O2−) production level in thoracic aorta tissue sections; experiment: Superoxide anion (O2−) production level in thoracic aorta tissue sections, lucigenin-enhanced chemiluminescence, after 8 weeks oral dosing; format: in vivo, Male Sprague-Dawley rats; conditions: endothelium-separated sections EC (−), comparison among the 4 groups (CTR, CTR+BH4, FR, FR+BH4)
Description: Male Sprague-Dawley rats (150 g, supplied from Charles River) were used to prepare a model group with insulin resistance induced by fructose feed loading (hereinafter referred to as “FR group”) according to the procedure described by Hwang et al. (Hwang, I-H. et al., Hypertension 10:512, 1987). A control group grown with a starch feed (hereinafter referred to as “CTR group”) was also prepared (FR group: n=16; CTR group: n=16). FR group received a feed containing 67% (hereinafter meaning % by weight) carbohydrate (containing 98% fructose available from Oriental Yeast Co., Ltd.), 13% fat and 20% protein, while CTR group received a feed containing 58% carbohydrate, 12% fat and […]. […] After 8 weeks, the thoracic aorta was collected. For each group, endothelium-separated sections (EC (−)) and non-separated sections (EC (+)) were prepared and examined for superoxide anion (O2^−) production level, endothelial NOS (eNOS) activity and endothelium-dependent vasorelaxation.
Group-to-group statistic analyses were made by one-way ANOVA, with the significance level being p<0.05. Multiple comparison was made by Bonferronl/Dunn, with the significance level being p<0.05.
Measurement of O2^−production level was made by the lucigenin-enhanced chemiluminescence method (Ohara et al., J. Clin. Invest. 91: 2546, 1993).

Compound: C[C@H](O)[C@H](O)C1CNc2nc(N)[nH]c(=O)c2N1 (stereo partly drawn) [(6R,S)-5,6,7,8-tetrahydrobiopterin]
- toxicity [1]: only slightly toxic

Compound: C[C@H](O)[C@H](O)[C@H]1CNc2nc(N)[nH]c(=O)c2N1 [BH4 dihydrochloride, (6R)-L-erythro-5,6,7,8-tetrahydrobiopterin]
- acute toxicity (rats): ≥ 2 g/kg (body weight)

Compound: C[C@H](O)[C@H](O)[C@H]1CNc2nc(N)[nH]c(=O)c2N1 [BH4, (6R)-L-erythro-5,6,7,8-tetrahydrobiopterin]
- O2− production level in EC (−) [2]: No significant difference

From patent US20020082261A1, “PROPHYLACTIC OR THERAPEUTIC AGENTS FOR DISEASES HAIVNG VASCULAR DYSFUNCTION ASSOCIATED WITH INSULIN RESISTANCE” (priority 1998, published 2002)
